{
  "source": "patent US5159085A",
  "about": "“2-anilino phenylacetic acid derivatives as inhibitors of PLA2 and lipoxygenase” (American Home Products Corporation, priority 1991, dated 1992)",
  "key": {"[1]": {"tested_on": "LTB4 synthesis by rat glycogen-elicited polymorphonuclear leukocytes (lipoxygenase)", "assay": "Inhibition of LTB4 synthesis by rat glycogen-elicited polymorphonuclear leukocytes (PMN)", "type": "cell-based, rat (female Wistar)", "settings": "Rattus norvegicus, Leukocyte, A 23187 and exogenous AA", "text": "This is especially true with respect to 5,12-diHETE, which is also denoted as LTB4 [see Ford-Hitchinson, J. Roy. Soc. Med., 74, 831 (1981)]. Compounds which inhibit the PLA2 -mediated release of arachidonic acid thereby effectively prevent the oxidation of arachidonic acid to the various leukotriene products via the lipoxygenase cascade. Accordingly, the specificity of action of PLA2 inhibitors can be determined by the activity of test compounds in this assay, which measures the ability of compounds to inhibit the synthesis of LTB4 by rat glycogen-elicited polymorphonuclear leukocytes (PMN) in the presence of exogenous substrate.\nThe assay is carried out as follows:\nRat polymorphonuclear leukocytes (PMNs) are obtained from female Wistar rats (150-200 g) which receive an injection of 6% glycogen (10 ml i.p.). Rats are sacrificed 18-24 hours post injection by CO2 asphyxiation and the elicited cells are harvested by peritoneal lavage using physiological saline (0.9% NaCl). The exudate is centrifuged at 400×g for 10 minutes. The supernatant fluid is discarded and the cell pellet is resuspended to a concentration of 2.0×10^7 cells/ml in HBSS containing Ca^++ and Mg^++ and 10 μM L-cysteine.\nTo 1 ml aliquots of cell suspension, test drugs or vehicle are added, then preincubated at 37° C. for 10 minutes. A 23187 (1 μM), [^3 H]-AA (3.0 μCi/ml) and unlabeled AA (1 μM) are then added and the samples are further incubated for 10 minutes. The reaction is terminated by centrifugation and pelleting cells. Supernatants are then analyzed by HPLC analysis on a 15 cm×4.6 mm ID supelcosil LC-18 (Supelco)(3M) column, using a two solvent system at a flow rate of 1.4 ml total flow as follows:\nGradient: (system is equillibrated with Solvent A)\nPercent solvent changes are accomplished in a linear fashion.\nInjections: 150 μl of each supernatant is injected directly onto column and ^3 H arachidonic acid metabolites are monitored using an on-line radioactivity detector (Ramona, IN/US, Fairfield, NJ).\nStandards: 10^4 -2.0×10^4 dpm of eicosanoids of interest are injected in 90 μl EtOH cocktail.\nCo-chromatography with standard [^3 H] leukotriene B4 (LTB4) in medium of stimulated PMN exposed to drug is compared to that found in medium of stimulated cells exposed to no drug, generating percent inhibition.\nResults are expressed as percent inhibition at a given compound dose or as an IC50 value."}, "[2]": {"tested_on": "Rat Peritonitis Fluid PLA2", "assay": "In vitro isolated phospholipase A2 assay, rat peritonitis fluid PLA2", "type": "biochemical"}, "Pancreatic Lipase PLA2": {"tested_on": "Pancreatic Lipase PLA2", "assay": "In vitro isolated phospholipase A2 assay, pancreatic lipase PLA2", "type": "biochemical"}, "Bee Venom PLA2": {"target": "Bee Venom PLA2 (Apis mellifera, UniProt P00630)", "sequence (P00630 34-167 limits assumed)": "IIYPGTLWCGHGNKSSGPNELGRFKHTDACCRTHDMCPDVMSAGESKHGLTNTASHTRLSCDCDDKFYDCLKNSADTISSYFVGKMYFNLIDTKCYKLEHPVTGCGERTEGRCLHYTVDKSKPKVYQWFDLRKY", "assay": "biochemical", "settings": "read-out: % Inhibition at a concentration of 10 μM, Bee Venom"}, "LTC4": {"tested_on": "LTC4", "assay": "In vivo murine zymosan peritonitis assay, LTC4 (lipoxygenase pathway)", "design": "species or system mouse (male CD-1)", "experimental": "The compounds of the invention are evaluated for their ability to inhibit the lipoxygenase and/or cyclooxygenase pathways of arachidonic acid metabolism in the in vivo murine zymosan peritonitis assay.\nThis assay is carried out as follows:\nMale CD-1 mice (8 weeks old) are placed in plastic boxes in groups of six. Animals are injected with 1 ml i.p. of either 1% zymosan in pyrogen free 0.9% saline or saline (unstimulated control). Compounds are dosed orally 1 hour prior to zymosan injection. Twenty minutes after zymosan injection, the mice are asphyxiated by CO2 inhalation and the peritoneal cavity is lavaged with 2 ml ice cold Hanks Balanced Salt Solution (HBSS) without CaCl2, MgSO4 ·7H2 O and MgCL2 ·6H2 O. Peritoneal lavage fluid from each mouse is removed by syringe and placed in 5 ml plastic test tubes put on ice and volume is noted. Preparation of samples for evaluation by ELISA is as follows: Samples are centrifuged at 800×g for 15 minutes; 1 ml of the supernatant is added to 8 ml ice cold methanol and kept at -70° C. overnight to precipitate protein; and samples are then centrifuged at 800×g for 15 minutes, followed by a drying procedure in a Savant speed vac concentrator. The samples are reconstituted with 1 ml ice cold ELISA buffer and stored at -70° C. until assayed. The assay for eicosanoids (LTC4 and 6-keto-PGF1α) is performed according to conventional ELISA procedures.\nCompounds to be tested orally are suspended in 0.5% Tween 80. Compounds to be tested intraperitoneally are suspended in 0.5% methylcellulose in 0.9% saline.\nThe total metabolite level in lavage fluid/mouse is calculated and the significance is determined by a one-way analysis of variance with LSD comparisons to control (p≤0.05). Drug effects are expressed as a percent change from control values."}},
  "data": [
    {"smiles": "O=C(O)Cc1cc(OCc2ccc3ccccc3n2)ccc1Nc1c(Cl)cccc1Cl", "note": "[Example 2, 2-[(2,6-Dichlorophenyl)amino]-5-(2-quinolylmethoxy)benzene acetic acid]", "values": [
      {"measurement": "IC50", "setting": "[1]", "result": 10, "unit": "nM"},
      {"measurement": "% Inhibition at a concentration of 10 μM, Rat Peritonitis Fluid", "setting": "[2]", "result": 69.7, "unit": "%"},
      {"measurement": "% Inhibition at a concentration of 10 μM, Pancreatic Lipase", "setting": "Pancreatic Lipase PLA2", "result": 90.1, "unit": "%"},
      {"measurement": "inhibition at 10 µM", "setting": "Bee Venom PLA2", "result": 38.7, "unit": "%"},
      {"measurement": "% Inhibition LTC4", "setting": "LTC4; 50 mg/kg p.o.", "result": 47, "unit": "%"},
      {"measurement": "% Inhibition LTC4", "setting": "LTC4; 100 mg/kg p.o.", "result": 78, "unit": "%"}
    ]}
  ]
}
